This note sets out measurements from patent publication US9115117B2, “Substituted piperidine compounds and their use as orexin receptor modulators” (JANSSEN PHARMACEUTICA NV, priority 2013, dated 2015).

Structures can show the parent of a compound that is named as a salt.

For one assay, the target named is human orexin 1 receptor (Homo sapiens, UniProt O43613). Put plainly: Human orexin 1 receptor radioligand binding. The settings on record: CHO cells stably expressing human orexin 1 receptor; apparent Ki; read-out: hOX1 Ki. The method in brief: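 Homogenized CHO cells stably expressing human orexin 1 receptor, in PBS. They were incubated 60 min at room temperature with 4 nM final tritiated thiazolyl-pyrrolidinyl-methanone radioligand, DMSO ≤0.1%. Nonspecific binding taken with 10 μM almorexant; bound radioactivity collected by GF/C filtration and scintillation-counted.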

In another assay the target is human orexin 2 receptor (Homo sapiens (Human), UniProt O43614). Kind of assay: Human orexin 2 receptor radioligand binding ([3H]-EMPA). The settings on record: HEK293 stably expressing human orexin 2 receptor; [3H]-EMPA; apparent Ki; read-out: hOX2 Ki. The method, boiled down: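 Competition binding with 2 nM final [3H]-EMPA in PBS against homogenized whole-cell suspension; DMSO ≤0.1%. Nonspecific binding defined with […] almorexant. Plates washed with PBS, dried, and bound radioactivity counted by scintillation.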

For the next assay, the target named is rat orexin 1 receptor (Rattus norvegicus, UniProt P56718). Kind of assay: Rat orexin 1 receptor radioligand binding. The conditions noted are these: HEK293 cells stably expressing rat orexin 1 receptor; apparent Ki; read-out: rOX1 Ki. The method in brief: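 Homogenized cell suspensions competed against 4 nM final of a tritiated oxadiazolyl-pyrrolidinyl thiazole methanone radioligand (35.3 Ci/mmol) in PBS, with DMSO ≤0.1%. Nonspecific binding defined with 10 μM almorexant; after washing and drying, bound radioactivity counted by scintillation.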

Chain of human orexin 2 receptor (O43614 whole entry): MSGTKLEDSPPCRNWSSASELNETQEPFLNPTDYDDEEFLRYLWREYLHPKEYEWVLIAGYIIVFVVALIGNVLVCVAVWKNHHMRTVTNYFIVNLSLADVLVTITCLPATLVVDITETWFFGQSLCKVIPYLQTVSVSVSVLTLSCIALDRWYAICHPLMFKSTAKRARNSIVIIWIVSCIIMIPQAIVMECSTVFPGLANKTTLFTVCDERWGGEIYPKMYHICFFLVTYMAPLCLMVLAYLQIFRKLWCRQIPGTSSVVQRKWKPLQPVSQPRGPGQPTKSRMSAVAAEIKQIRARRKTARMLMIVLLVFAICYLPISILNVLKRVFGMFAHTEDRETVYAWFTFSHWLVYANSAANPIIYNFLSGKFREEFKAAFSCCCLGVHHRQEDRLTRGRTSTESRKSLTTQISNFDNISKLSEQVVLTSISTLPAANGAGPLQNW

`Cc1ccc(-c2ncccn2)c(C(=O)N2CCC[C@@H](Nc3ncc(C(F)(F)F)cn3)[C@@H]2C)n1` [Example 78, ((2S,3R)-2-methyl-3-((5-(trifluoromethyl)pyrimidin-2-yl)amino)piperidin-1-yl)(6-methyl-3-(pyrimidin-2-yl)pyridin-2-yl)methanone]: the Ki is 57 nM at human orexin 1 receptor, 436 nM at human orexin 2 receptor and 30 nM at rat orexin 1 receptor.

With `Cc1cnc(C(=O)N2CCC[C@@H](Oc3ncc(C(F)(F)F)cn3)[C@@H]2C)c(-n2nccn2)c1` [Example 101, ((2S,3R)-2-methyl-3-((5-(trifluoromethyl)pyrimidin-2-yl)oxy)piperidin-1-yl)(5-methyl-3-(2H-1,2,3-triazol-2-yl)pyridin-2-yl)methanone], the Ki was 446 nM on human orexin 1 receptor, more than 10000 nM on human orexin 2 receptor and 215 nM on rat orexin 1 receptor.

Regarding `Cc1cccc(C(=O)N2CCC[C@@H](Nc3ccc(C(F)(F)F)cn3)[C@@H]2C)c1-n1nccn1` (racemic) [Example 20, (±)-trans-(3-methyl-2-(2H-1,2,3-triazol-2-yl)phenyl)(2-methyl-3-((5-(trifluoromethyl)pyridin-2-yl)amino)piperidin-1-yl)methanone], the Ki came out at 8 nM at human orexin 1 receptor, 150 nM on human orexin 2 receptor and 14 nM at rat orexin 1 receptor.

On to `Cc1ccc(C(=O)N2CCC[C@@H](Nc3ncc(C(F)(F)F)cn3)[C@@H]2C)c(-n2nccn2)c1` [Example 71, (4-methyl-2-(2H-1,2,3-triazol-2-yl)phenyl)((2S,3R)-2-methyl-3-((5-(trifluoromethyl)pyrimidin-2-yl)amino)piperidin-1-yl)methanone], for which the figures for the Ki at human orexin 1 receptor, on human orexin 2 receptor and on rat orexin 1 receptor were 12 nM, 1500 nM and 10 nM, respectively.

Regarding `Cc1ccc(C(=O)N2CCC[C@@H](Nc3cnc(C(F)(F)F)cn3)[C@@H]2C)c(-n2nccn2)c1` [Example 79, (4-methyl-2-(2H-1,2,3-triazol-2-yl)phenyl)((2S,3R)-2-methyl-3-((5-(trifluoromethyl)pyrazin-2-yl)amino)piperidin-1-yl)methanone], the Ki is 7 nM at human orexin 1 receptor, 1300 nM at human orexin 2 receptor and 8 nM at rat orexin 1 receptor.

With `Cc1ccc(C(=O)N2CCC[C@@H](Nc3cnc(C(F)(F)F)cn3)[C@@H]2C)c(-n2ccnn2)n1` [Example 96, (6-methyl-2-(1H-1,2,3-triazol-1-yl)pyridin-3-yl)((2S,3R)-2-methyl-3-((5-(trifluoromethyl)pyrazin-2-yl)amino)piperidin-1-yl)methanone], the figures for the Ki at human orexin 1 receptor, on human orexin 2 receptor and on rat orexin 1 receptor were 47 nM, 3900 nM and 81 nM, respectively.

For `Cc1ccc(-c2ncco2)c(C(=O)N2CCC[C@@H](Nc3ccc(C(F)(F)F)cn3)[C@@H]2C)n1` (racemic) [Example 22, (±)-trans-(2-methyl-3-((5-(trifluoromethyl)pyridin-2-yl)amino)piperidin-1-yl)(6-methyl-3-(oxazol-2-yl)pyridin-2-yl)methanone hydrochloride], the Ki on human orexin 1 receptor worked out at 19 nM; at human orexin 2 receptor, 422 nM; at rat orexin 1 receptor, 33 nM.

Take `C[C@H]1[C@H](Nc2cnc(C(F)(F)F)cn2)CCCN1C(=O)c1cc(F)ccc1-n1nccn1` [Example 90, (5-fluoro-2-(2H-1,2,3-triazol-2-yl)phenyl)((2S,3R)-2-methyl-3-((5-(trifluoromethyl)pyrazin-2-yl)amino)piperidin-1-yl)methanone]: the values for the Ki on human orexin 1 receptor, on human orexin 2 receptor and on rat orexin 1 receptor were 19 nM, 486 nM and 20 nM, respectively.

Regarding `COc1ccc(-n2nccn2)c(C(=O)N2CCC[C@@H](Nc3ccc(C(F)(F)F)cn3)[C@@H]2C)c1` (racemic) [Example 19, (±)-trans-(5-methoxy-2-(2H-1,2,3-triazol-2-yl)phenyl)(2-methyl-3-((5-(trifluoromethyl)pyridin-2-yl)amino)piperidin-1-yl)methanone], the Ki at human orexin 1 receptor was 10 nM; at human orexin 2 receptor, 238 nM; at rat orexin 1 receptor, 10 nM.

Consider `Cc1ccc(C(=O)N2CCC[C@@H](Nc3ccc(C(F)(F)F)cn3)[C@@H]2C)c(-n2nccn2)c1` (racemic) [Example 13, (±)-trans-(4-methyl-2-(2H-1,2,3-triazol-2-yl)phenyl)(2-methyl-3-((5-(trifluoromethyl)pyridin-2-yl)amino)piperidin-1-yl)methanone], for which the Ki on human orexin 1 receptor was 9 nM; on human orexin 2 receptor, 920 nM; at rat orexin 1 receptor, 15 nM.

For the compound `Cc1cnc(C(=O)N2CCC[C@@H](Nc3ncc(C(F)(F)F)cn3)[C@@H]2C)c(-n2nccn2)c1` [Example 94, ((2S,3R)-2-methyl-3-((5-(trifluoromethyl)pyrimidin-2-yl)amino)piperidin-1-yl)(5-methyl-3-(2H-1,2,3-triazol-2-yl)pyridin-2-yl)methanone], the values for the Ki at human orexin 1 receptor, on human orexin 2 receptor and at rat orexin 1 receptor were 25 nM, more than 10000 nM and 38 nM, respectively.

For the compound `C[C@H]1[C@H](Nc2cnc(C(F)(F)F)cn2)CCCN1C(=O)c1ccccc1-n1nccn1` (racemic) [Example 38, (±)-trans-(2-(2H-1,2,3-triazol-2-yl)phenyl)(2-methyl-3-((5-(trifluoromethyl)pyrazin-2-yl)amino)piperidin-1-yl)methanone], the values for the Ki on human orexin 1 receptor, at human orexin 2 receptor and on rat orexin 1 receptor were 25 nM, 529 nM and 18 nM, respectively.

For the compound `C[C@H]1[C@H](Nc2cnc(C(F)(F)F)cn2)CCCN1C(=O)c1ccccc1-n1nccn1` [Example 85, (2-(2H-1,2,3-triazol-2-yl)phenyl)((2S,3R)-2-methyl-3-((5-(trifluoromethyl)pyrazin-2-yl)amino)piperidin-1-yl)methanone], the Ki was 10 nM at human orexin 1 receptor, 210 nM at human orexin 2 receptor and 8 nM on rat orexin 1 receptor.

On to `Cc1ccc(-c2ncccn2)c(C(=O)N2CCC[C@@H](Nc3nc4ccccc4o3)[C@@H]2C)n1` [Example 81, ((2S,3R)-3-(benzo[d]oxazol-2-ylamino)-2-methylpiperidin-1-yl)(6-methyl-3-(pyrimidin-2-yl)pyridin-2-yl)methanone], for which the Ki was found to be 23 nM at human orexin 1 receptor, 100 nM at human orexin 2 receptor and 14 nM on rat orexin 1 receptor.

On to `Cc1cnc(C(=O)N2CCC[C@@H](Nc3ccc(C(F)(F)F)cn3)[C@@H]2C)c(-n2nccn2)c1` [Example 26, ((2S,3R)-2-methyl-3-((5-(trifluoromethyl)pyridin-2-yl)amino)piperidin-1-yl)(5-methyl-3-(2H-1,2,3-triazol-2-yl)pyridin-2-yl)methanone], for which the Ki at human orexin 1 receptor amounted to 14 nM; at human orexin 2 receptor, 2040 nM; on rat orexin 1 receptor, 11 nM.

As for `Cc1ccc(C(=O)N2CCC[C@@H](Nc3ncc(C(F)(F)F)cn3)[C@@H]2C)c(-n2ccnn2)n1` [Example 70, (6-methyl-2-(1H-1,2,3-triazol-1-yl)pyridin-3-yl)((2S,3R)-2-methyl-3-((5-(trifluoromethyl)pyrimidin-2-yl)amino)piperidin-1-yl)methanone], the values for the Ki at human orexin 1 receptor, on human orexin 2 receptor and on rat orexin 1 receptor were 165 nM, 7500 nM and 170 nM, respectively.

Turning to `C[C@H]1[C@H](Nc2nc3cc(Cl)ccc3o2)CCCN1C(=O)c1ccccc1-n1nccn1` (racemic) [Example 45, (±)-trans-(2-(2H-1,2,3-triazol-2-yl)phenyl)(3-((5-chlorobenzo[d]oxazol-2-yl)amino)-2-methylpiperidin-1-yl)methanone], the Ki is 26 nM at human orexin 1 receptor, 281 nM at human orexin 2 receptor and 28 nM on rat orexin 1 receptor.

Consider `CCOc1ccccc1C(=O)N1CCC[C@@H](Nc2ccc(C(F)(F)F)cn2)[C@@H]1C` (racemic) [Example 29, (±)-trans-(2-ethoxyphenyl)(2-methyl-3-((5-(trifluoromethyl)pyridin-2-yl)amino)piperidin-1-yl)methanone], for which the Ki on human orexin 1 receptor is 90 nM; on human orexin 2 receptor it was 1400 nM; on rat orexin 1 receptor, 97 nM.

For `Cc1ccc(C(=O)N2CCC[C@@H](Nc3ncc(C(F)(F)F)cn3)[C@@H]2C)c(-n2nccn2)n1` [Example 69, (6-methyl-2-(2H-1,2,3-triazol-2-yl)pyridin-3-yl)((2S,3R)-2-methyl-3-((5-(trifluoromethyl)pyrimidin-2-yl)amino)piperidin-1-yl)methanone], the Ki was 112 nM on human orexin 1 receptor, more than 10000 nM at human orexin 2 receptor and 70 nM on rat orexin 1 receptor.
